Experimental data taken from patent publication US10745382B2 (BRISTOL-MYERS SQUIBB COMPANY, priority 2015, dated 2020).
Read-outs that look alike come from different tables or passages of the source.

Target: T1, PD-1/PD-L1 (Homo sapiens, UniProt Q9NZQ7)
T1 construct: made in house; host or cells: HEK293T
Assay: PD-1/PD-L1 Homogenous Time-Resolved Fluorescence (HTRF) binding assay
Settings: PD-L1-His 10 nM, PD-1-Ig 20 nM, read-out: Range or IC50
Method in brief: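 Binding was measured by HTRF in dPBS with 0.1% BSA and 0.05% Tween-20. Detection used europium cryptate anti-Ig (1 nM final) and APC anti-His (20 nM final) added over the binding reaction.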

T1 sequence (Q9NZQ7 with tags, fused parts or gaps): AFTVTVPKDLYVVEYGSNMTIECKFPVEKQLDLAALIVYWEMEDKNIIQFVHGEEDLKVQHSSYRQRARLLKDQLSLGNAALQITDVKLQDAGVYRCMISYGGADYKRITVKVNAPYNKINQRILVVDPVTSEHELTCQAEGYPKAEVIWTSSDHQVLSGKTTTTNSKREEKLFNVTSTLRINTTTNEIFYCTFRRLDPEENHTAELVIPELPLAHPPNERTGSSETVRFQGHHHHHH

| Structure (SMILES) | IC50 (value given as range class) [nM] | IC50 (numeric IC50) [nM] |
| --- | --- | --- |
| Cc1c(COc2cc(OCc3cncc(C#N)c3)c(CN[C@@](C)(CO)C(=O)O)cc2Cl)cccc1-c1cccc(OCCCN2CCC[C@H](C(=O)O)C2)c1C [Example 2264, (3S)-1-(3-(3′-((4-(((S)-2-carboxy-1-hydroxypropan-2-ylamino)methyl)-2-chloro-5-((5-cyanopyridin-3-yl)methoxy)phenoxy)methyl)-2,2′-dimethylbiphenyl-3-yloxy)propyl)piperidine-3-carboxylic Acid] | 0.21 to 10 |  |
| Cc1c(COc2cc(OCc3cncc(C#N)c3)c(CNC[C@H](O)CO)cc2Cl)cccc1-c1cccc(OCCCNC[C@H](O)CO)c1C [Example 2265, 5-((4-chloro-2-(((S)-2,3-dihydroxypropylamino)methyl)-5-((3′-(3-((S)-2,3-dihydroxypropylamino)propoxy)-2,2′-dimethylbiphenyl-3-yl)methoxy)phenoxy)methyl)nicotinonitrile] | 0.21 to 10 |  |
| Cc1c(COc2cc(OCc3cncc(C#N)c3)c(CN(C)CCC(N)=O)cc2Cl)cccc1-c1cccc(OCCCN(C)CCC(N)=O)c1C [Example 2266, 3-((3-(3′-((4-(((3-amino-3-oxopropyl)(methyl)amino)methyl)-2-chloro-5-((5-cyanopyridin-3-yl)methoxy)phenoxy)methyl)-2,2′-dimethylbiphenyl-3-yloxy)propyl)(methyl)amino)propanamide] | 0.21 to 10 |  |
| CC(=O)N[C@@H]1CCN(CCCOc2cccc(-c3cccc(COc4cc(OCc5cncc(C#N)c5)c(CN5CC[C@@H](NC(C)=O)C5)cc4Cl)c3C)c2C)C1 [Example 2267, N-((3R)-1-(3-(3′-((4-(((R)-3-acetamidopyrrolidin-1-yl)methyl)-2-chloro-5-((5-cyanopyridin-3-yl)methoxy)phenoxy)methyl)-2,2′-dimethylbiphenyl-3-yloxy)propyl)pyrrolidin-3-yl)acetamide] | 0.21 to 10 |  |
| Cc1c(COc2cc(OCc3cncc(C#N)c3)c(CN3CCCC[C@H]3C(=O)O)cc2Cl)cccc1-c1cccc(OCCCN2CCCC[C@H]2C(=O)O)c1C [Example 2268, (2S)-1-(3-(3′-((4-(((S)-2-carboxypiperidin-1-yl)methyl)-2-chloro-5-((5-cyanopyridin-3-yl)methoxy)phenoxy)methyl)-2,2′-dimethylbiphenyl-3-yloxy)propyl)piperidine-2-carboxylic Acid] | 0.21 to 10 |  |
| CNC1CCN(CCCOc2cccc(-c3cccc(COc4cc(OCc5cncc(C#N)c5)c(CN5CCCC[C@H]5C(=O)O)cc4Cl)c3C)c2C)CC1 [Example 2269, (2S)-1-(5-chloro-2-((5-cyanopyridin-3-yl)methoxy)-4-((2,2′-dimethyl-3′-(3-(4-(methylamino)piperidin-1-yl)propoxy)biphenyl-3-yl)methoxy)benzyl)piperidine-2-carboxylic Acid] | 0.21 to 10 |  |
| CC(=O)N[C@@H]1CCN(CCCOc2cccc(-c3cccc(COc4cc(OCc5cncc(C#N)c5)c(CN[C@@](C)(CO)C(=O)O)cc4Cl)c3C)c2C)C1 [Example 2270, (2S)-2-(4-((3′-(3-((R)-3-acetamidopyrrolidin-1-yl)propoxy)-2,2′-dimethylbiphenyl-3-yl)methoxy)-5-chloro-2-((5-cyanopyridin-3-yl)methoxy)benzylamino)-3-hydroxy-2-methylpropanoic Acid] | 0.21 to 10 |  |
| Cc1c(COc2cc(OCc3cncc(C#N)c3)c(CN(C)C[C@H](O)CO)cc2Cl)cccc1-c1cccc(OCCCN(C)C[C@H](O)CO)c1C [Example 2271, 5-((4-chloro-2-((((S)-2,3-dihydroxypropyl)(methyl)amino)methyl)-5-((3′-(3-(((S)-2,3-dihydroxypropyl)(methyl)amino)propoxy)-2,2′-dimethylbiphenyl-3-yl)methoxy)phenoxy)methyl)nicotinonitrile] | 0.21 to 10 |  |
| Cc1c(COc2cc(OCc3cncc(C#N)c3)c(CN[C@@](C)(CO)C(=O)O)cc2Cl)cccc1-c1cccc(OCCCN2CCCCC2)c1C [Example 2272, (S)-2-((5-chloro-2-((5-cyanopyridin-3-yl)methoxy)-4-((2,2′-dimethyl-3′-(3-(piperidin-1-yl)propoxy)-[1,1′-biphenyl]-3-yl)methoxy)benzyl)amino)-3-hydroxy-2-methylpropanoic Acid] | 0.21 to 10 |  |
| Cc1c(COc2cc(OCc3cncc(C#N)c3)c(CN[C@@](C)(CO)C(=O)O)cc2Cl)cccc1-c1cccc(OCCCN2CCOCC2)c1C [Example 2273, (S)-2-((5-chloro-2-((5-cyanopyridin-3-yl)methoxy)-4-((2,2′-dimethyl-3′-(3-morpholinopropoxy)-[1,1′-biphenyl]-3-yl)methoxy)benzyl)amino)-3-hydroxy-2-methylpropanoic Acid] | 0.21 to 10 |  |
| Cc1c(COc2cc(OCc3cncc(C#N)c3)c(CN[C@@](C)(CO)C(=O)O)cc2Cl)cccc1-c1cccc(OCCCN2CCC(NC(=O)C(F)(F)F)C2)c1C (stereo partly drawn) [Example 2274, (2S)-2-((5-chloro-2-((5-cyanopyridin-3-yl)methoxy)-4-((2,2′-dimethyl-3′-(3-(3-(2,2,2-trifluoroacetamido)pyrrolidin-1-yl)propoxy)-[1,1′-biphenyl]-3-yl)methoxy)benzyl)amino)-3-hydroxy-2-methylpropanoic Acid] | 0.21 to 10 |  |
| Cc1c(COc2cc(OCc3cncc(C#N)c3)c(CN[C@@](C)(CO)C(=O)O)cc2Cl)cccc1-c1cccc(OCCCN2CCC(CO)CC2)c1C [Example 2275, (S)-2-((5-chloro-2-((5-cyanopyridin-3-yl)methoxy)-4-((3′-(3-(4-(hydroxymethyl)piperidin-1-yl)propoxy)-2,2′-dimethyl-[1,1′-biphenyl]-3-yl)methoxy)benzyl)amino)-3-hydroxy-2-methylpropanoic Acid] | 0.21 to 10 |  |
| CC(=O)N[C@@H]1CCN(CCCOc2cccc(-c3cccc(COc4cc(OCc5cncc(C#N)c5)c(CO)cc4Cl)c3C)c2C)C1 [Example 2276, N-((3R)-1-(3-(3′-((2-chloro-5-((5-cyanopyridin-3-yl)methoxy)-4-(hydroxymethyl)phenoxy)methyl)-2,2′-dimethylbiphenyl-3-yloxy)propyl)pyrrolidin-3-yl)acetamide] | 0.21 to 10 |  |
| CO[C@@H]1CCN(CCCOc2cccc(-c3cccc(COc4cc(OCc5cncc(C#N)c5)c(CO)cc4Cl)c3C)c2C)C1 [Example 2277, 5-((4-chloro-2-(hydroxymethyl)-5-((3′-(3-((R)-3-methoxypyrrolidin-1-yl)propoxy)-2,2′-dimethylbiphenyl-3-yl)methoxy)phenoxy)methyl)nicotinonitrile] | 0.21 to 10 |  |
| CCC(CO)(CO)NCCCOc1cccc(-c2cccc(COc3cc(OCc4cncc(C#N)c4)c(CNC(CC)(CO)CO)cc3Cl)c2C)c1C [Example 2278, 5-((4-chloro-2-(((1-hydroxy-2-(hydroxymethyl)butan-2-yl)amino)methyl)-5-((3′-(3-((1-hydroxy-2-(hydroxymethyl)butan-2-yl)amino)propoxy)-2,2′-dimethyl-[1,1′-biphenyl]-3-yl)methoxy)phenoxy)methyl)nicotinonitrile] | 0.21 to 10 |  |
| CCC(CO)(CO)NCc1cc(Cl)c(OCc2cccc(-c3cccc(OCCCNC[C@H](O)CO)c3C)c2C)cc1OCc1cncc(C#N)c1 [Example 2279, (S)-5-((4-chloro-5-((3′-(3-((2,3-dihydroxypropyl)amino)propoxy)-2,2′-dimethyl-[1,1′-biphenyl]-3-yl)methoxy)-2-(((1-hydroxy-2-(hydroxymethyl)butan-2-yl)amino)methyl)phenoxy)methyl)nicotinonitrile] | 0.21 to 10 |  |
| CCC(CO)(CO)NCc1cc(Cl)c(OCc2cccc(-c3cccc(OCCCN4CC[C@@H](O)C4)c3C)c2C)cc1OCc1cncc(C#N)c1 [Example 2280, (R)-5-((4-chloro-2-(((1-hydroxy-2-(hydroxymethyl)butan-2-yl)amino)methyl)-5-((3′-(3-(3-hydroxypyrrolidin-1-yl)propoxy)-2,2′-dimethyl-[1,1′-biphenyl]-3-yl)methoxy)phenoxy)methyl)nicotinonitrile] | 0.21 to 10 |  |
| Cc1c(COc2cc(OCc3cncc(C#N)c3)c(CNC(CO)(CO)CO)cc2Cl)cccc1-c1cccc(OCCCNC(CO)(CO)CO)c1C [Example 2281, 5-((4-chloro-2-(((1,3-dihydroxy-2-(hydroxymethyl)propan-2-yl)amino)methyl)-5-((3′-(3-((1,3-dihydroxy-2-(hydroxymethyl)propan-2-yl)amino)propoxy)-2,2′-dimethyl-[1,1′-biphenyl]-3-yl)methoxy)phenoxy)methyl)nicotinonitrile] |  | 3 |
| Cc1c(COc2cc(OCc3cncc(C#N)c3)c(CNC(CO)(CO)CO)cc2Cl)cccc1-c1cccc(OCCCNC[C@H](O)CO)c1C [Example 2282, (S)-5-((4-chloro-2-(((1,3-dihydroxy-2-(hydroxymethyl)propan-2-yl)amino)methyl)-5-((3′-(3-((2,3-dihydroxypropyl)amino)propoxy)-2,2′-dimethyl-[1,1′-biphenyl]-3-yl)methoxy)phenoxy)methyl)nicotinonitrile] | 0.21 to 10 |  |
| CCC(CO)(CO)NCc1cc(Cl)c(OCc2cccc(-c3cccc(OCCCN4CCCC(CO)C4)c3C)c2C)cc1OCc1cncc(C#N)c1 (stereo not drawn) [Example 2283, 5-((4-chloro-2-(((1-hydroxy-2-(hydroxymethyl)butan-2-yl)amino)methyl)-5-((3′-(3-(3-(hydroxymethyl)piperidin-1-yl)propoxy)-2,2′-dimethyl-[1,1′-biphenyl]-3-yl)methoxy)phenoxy)methyl)nicotinonitrile] | 0.21 to 10 |  |
| Cc1c(COc2cc(OCc3cncc(C#N)c3)c(CNC(CO)(CO)CO)cc2Cl)cccc1-c1cccc(OCCCN2CCCC(CO)C2)c1C (stereo not drawn) [Example 2284, 5-((4-chloro-2-(((1,3-dihydroxy-2-(hydroxymethyl)propan-2-yl)amino)methyl)-5-((3′-(3-(3-(hydroxymethyl)piperidin-1-yl)propoxy)-2,2′-dimethyl-[1,1′-biphenyl]-3-yl)methoxy)phenoxy)methyl)nicotinonitrile] | 0.21 to 10 |  |
